Structures can show the parent of a compound that is named as a salt.
Target: T1, Lysozyme from chicken egg white (Gallus gallus, UniProt P00698)
T1 construct: gene LYZ
Assay: isothermal titration calorimetry (VP-ITC)
Type: binding
Conditions: read-out: K

T1 sequence (P00698 19-147): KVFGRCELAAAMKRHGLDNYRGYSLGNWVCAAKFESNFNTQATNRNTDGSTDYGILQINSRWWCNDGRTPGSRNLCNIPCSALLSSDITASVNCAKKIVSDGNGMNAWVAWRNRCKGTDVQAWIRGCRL

A Kd of 2620 nM was found for `O=S(=O)(O)CCCSc1nc2ccccc2s1` [BTS, 3-(2-Benzohiazolylthio)-1-propane-sulfonic acid sodium salt] in this work.

Source: paper PMC8510236, “Unraveling the Compositional and Molecular Features Involved in Lysozyme-Benzothiazole Derivative Interactions” (Molecules, 2021)
